In patent publication US11919858B2, “Aminonapthoquinone compounds and pharmaceutical composition for blocking ubiquitination-proteasome system in diseases” (Calgent Biotechnology Co., Ltd., priority 2015, dated 2024):
Like-named read-outs stand apart in the source and are kept apart here.

Experiments:
[1] = tested on: human A2780 ovarian adenocarcinoma; assay: Human A2780 ovarian cancer xenograft in female nude mice (TMU-A2780-e0001); type: in vivo; conditions: bortezomib 1 mg/kg QWK to end
[2] = tested on: HCT116 human colorectal adenocarcinoma
Description: MPT0L056 was used to evaluate for activity against the HCT116 human colorectal adenocarcinoma.
However, MPT0E028 was administered orally (p.o.) in 1.0% CMC and 0.5% Tween 80 and given dose at 25 mg/kg daily to end schedule.
Each animal was euthanized when the tumors reached the predetermined endpoint size of 1,000 mm^3. The time to endpoint (TTE) for each mouse was calculated by the following equation:
[formula] where TTE is expressed in days, endpoint volume is in mm^3, b is the intercept, and m is the slope of the line obtained by linear regression of a log-transformed tumor growth data set. The data set is comprised of the first observation that exceeded the study endpoint volume and the three consecutive observations that immediately preceded the attainment of the endpoint volume. The calculated TTE is usually less than the day on which an animal is euthanized for tumor size. […] An animal classified as having died from treatment-related (TR) causes or non-treatment-related metastasis (NTRm) causes was assigned a TTE value equal to the day of death. An animal classified as having died from non-treatment-related (NTR) causes was excluded from TTE calculations.
Treatment efficacy was determined from tumor growth delay (TGD), which is defined as the increase in the median TTE for a treatment group compared to the control group: TGD=T−C, expressed in days, or as a percentage of the median TTE of the control group:
[formula] where: • T=median TTE for a treatment group, • C=median TTE for control Group 1.
Treatment efficacy was also determined from the tumor volumes of animals remaining in the study on the last day, and from the number of regression responses. The MTV(n) is defined as the median tumor volume on D59 in the number of animals remaining, n, whose tumors have not attained the endpoint volume.
Treatment may cause a partial regression (PR) or a complete regression (CR) of the tumor in an animal. […] An animal with a CR at the termination of a study is additionally classified as a tumor-free survivor (TFS).
Animals were weighed daily for the first five days, then twice weekly until the completion of the study. The mice were examined frequently for overt signs of any adverse, drug-related side effects. Acceptable toxicity for the MTD of cancer drugs is defined as a group mean BW loss of 20% or less during the test, and not more than one TR death among ten animals. A death is classified as TR if there is evidence of treatment side effects from clinical signs and/or necropsy or from unknown causes during dosing period or within 10 days of the last dose. A death is classified as NTR if there is no evidence that the death was related to treatment side effects.
The logrank test was used to determine the statistical significance of the difference between the TTE values of two groups, except any NTR deaths. Statistical and graphical analyses were performed with Prism 3.03 (GraphPad) for Windows. The two-tailed statistical analyses were conducted at P=0.05. Kaplan-Meier plots show the percentage of animals remaining in the study versus time. The Kaplan-Meier plots use the same data set as the log rank test. The tumor growth curves show the group median tumor volume, on a log scale as a function of time.

[3] = tested on: human MDA-MB-231 breast adenocarcinoma; assay: Human MDA-MB-231 breast cancer xenograft in female nude mice (TMU-MDA-MB-231-e0002); conditions: bortezomib 1 mg/kg QWK to end
[4] = Group 3: bortezomib 1 mg/kg iv qwk to endpoint
[5] = Group 3: bortezomib 1 mg/kg iv qwk to endpoint, listed as Bortezomib
[6] = Group 6: bortezomib 1 mg/kg iv qwk + MPT0E028 25 mg/kg po qd to endpoint
[7] = Group 6: bortezomib 1 mg/kg iv qwk + MPT0E028 25 mg/kg po qd to endpoint, listed as Bortezomib

CC(C)C[C@H](NC(=O)[C@H](Cc1ccccc1)NC(=O)c1cnccn1)B(O)O [bortezomib, reference compound]
antitumor activity [1]: showed antitumor activity | Median survival ([2]; Group 1 vs 3: bortezomib 1 mg/kg): 38.95 | Median survival ([2]; Group 1 vs 6: bortezomib + MPT0E028 1/25 mg/kg): 38.4 | % TGD [2, 4]: 71% | MTV (n) Day 59 [2, 4]: 683 mm^3 | Median TTE [2, 4]: 38.9 days | No. of CR [2, 4]: 2 | No. of LTTFS [2, 4]: 0 | No. of NTR [2, 4]: 0 | No. of PR [2, 4]: 1 | No. of TR [2, 4]: 0 | T-C [2, 4]: 16.2 days | antitumor activity (logrank analysis) [2, 4]: produced significant antitumor activity | Logrank Significance ([2]; Group 3: bortezomib 1 mg/kg iv qwk to endpoint, compared to Group 1): * (* = P < 0.05) | % TGD [2, 5]: 71% | No. of CR [2, 5]: two | No. of PR [2, 5]: one | % TGD [2, 6]: 69% | MTV (n) Day 59 [2, 6]: 0 mm^3 | Median TTE [2, 6]: 38.4 days | No. of CR [2, 6]: 1 | No. of LTTFS [2, 6]: 1 | No. of NTR [2, 6]: 4 | No. of PR [2, 6]: 1 | No. of TR [2, 6]: 0 | T-C [2, 6]: 15.7 days | % TGD [2, 7]: 69% | No. of CR [2, 7]: one | No. of LTTFS [2, 7]: one | No. of PR [2, 7]: one | antitumor activity [3]: did not show antitumor activity
